Measured values: patent US12303572B2 (Duke University, priority 2015, dated 2025)

Assays:
[1] = T2 contrast changes in guinea pig brain at 7T after i.v. ascorbate formulations; format: in vivo, guinea pigs; details: 2 g/kg over 60 min slow infusion
[2] = oral, even at doses more than 100 times the recommended daily allowance; cited from earlier work
[3] = physiological pH of 7.4; cited from earlier work
[4] = In vitro (phantom) quantitative T2 mapping at 7T, spin-spin relaxation contrast
Method: Data are provided from quantitative T2 mapping at 7T using a RARE FSE protocol with at least 6 different echo times, at solute concentrations of 10 and 20 mM.

[5] = Ascorbate T2 enhancement in rodent model of neocortical spreading depression; format: in vivo; details: slices 3 and 4 mm anterior to bregma, KCl-induced SD in right hemisphere
Source text: FIG. 10. […] The craniectomy site is 1 mm posterior to bregma, a skull landmark representing the posterior third of the underlying brain. The above two rows show T2 images and quantitative color lute T2 maps of signal change in rodent brain that are 3 and 4 mm anterior to bregma, that is, distant from the SD induction site. […] These marked cortical signal changes are consistent with the known hypermetabolic activity that occurs with SD, as also observed with ^18F-FDG PET, and with direct microdialysis and metabolomic determinations.
Spreading depression (SD) is an experimentally reproducible pathophysiological phenomenon of CNS tissues originally described 60 years ago by Loao. After a focal region of cortex reaches a critical threshold of ionic perturbation, a massive spreading wave of cellular depolarization may begin and spread through gray matter tissue, but remain confined to the gray matter zone in which it was induced, not crossing white matter pathways. […]
The craniectomy site is 1 mm posterior to bregma, a skull landmark representing the posterior third of the underlying brain. The above two rows show T2 images and quantitiative color lute T2 maps of signal change in rodent brain that are 3 and 4 mm anterior to bregma, that is, distant from the SD induction site. […]

[6] = Perfusion and viability cardiac imaging with parenteral ascorbate at 7T; format: in vivo; details: initial i.v. bolus, rat heart
Method: FIGS. 11A-11B. Perfusion and viability cardiac imaging with parenteral ascorbate. FIG. 11A depicts the two primary imaging planes, coronal and axial, for rat heart imaging at 7T.
Perfusion and viability cardiac imaging with parenteral ascorbate was assessed. FIG. 11A, depicts the two primary imaging planes, coronal and axial, for rat heart imaging at 7T. Retrospective gating with respiratory coupling was employed to collect images at 7T. The acquisition sequence is moderately T2-weighted and can be further optimized to enhance the contrast effect.

| Compound | FSE T2 images before and after infusion [1] | plasma concentration [2] [µM] | fraction present as mono anion [3] [%] | change in T2 relaxation ([4]; 10 mM ascorbate with physiological glucose (5 mM) or HCO3- (25 mM), pH 7.0) [%] | pH at which the T2 effect is maximized ([4]; phantoms, FIG. 3C) | lowest concentration with statistically significant negative T2 contrast (signal loss) ([4]; vs control (phosphate-buffered saline), conventional FSE acquisition) [mM] | effect of H2O2 on ascorbate T2 enhancement ([4]; μM H2O2, phantoms, FIG. 3B) | T2 signal change in cerebral cortex [5] | T2 signal intensity in left ventricle [6] | T2 contrast effect (T2 relaxation in ms) relative to meglumine or ascorbate alone ([4]; 10 mM, water, neutral pH, FIG. 3D) |
| --- | --- | --- | --- | --- | --- | --- | --- | --- | --- | --- |
| O=C1O[C@H]([C@@H](O)CO)C(O)=C1O [ascorbate, L-ascorbic acid] | dramatic signal intensity differences throughout the brain parenchyma | ≤ 200 | 99 | 50 | 7.0-7.4 | 1 to 5 | marked synergism | clear T2 asymmetry in the right cerebral cortex as compared to the left | transient decrease in T2 signal intensity throughout the left ventricle |  |
| meglumine ascorbate |  |  |  |  |  |  |  |  |  | approximately 4 times |
